From patent US20180360042A1, “Liquid fungicide-containing formulations” (BAYER CROPSCIENCE AKTIENGESELLSCHAFT, priority 2015, published 2018)

Assays:
[1] = Determination of compound (III) content in prothioconazole formulations by HPLC-MS/MS, starting samples; type: physicochemical; details: PTZ EC 250 starting sample
Protocol: (§1) Determination of 2-(1-chlorocyclopropyl)-1-(2-chlorophenyl)-3-(1H-1,2,4-triazol-1-yl)propan-2-ol (Compound III) in Formulations
(§2) 2-(1-Chlorocyclopropyl)-1-(2-chlorophenyl)-3-(1H-1,2,4-triazol-1-yl)propan-2-ol is separated from the formulation constituents on a reverse phase column using an isocratic eluent. After MS/MS detection, the quantitative evaluation is conducted by comparing the peak areas with those of the reference object, using an external standard.
(§3) High-pressure liquid chromatograph: HP 1090
(§4) Sample injection: HP 1090 Autoinjector
(§5) Mass spectrometer: Quattro I, Fisons
(§6) Integration and evaluation: MassLynx from Micromass

[2] = Determination of compound (III) content in prothioconazole formulations after storage at 54° C. for 2 weeks; type: physicochemical; details: PTZ EC 250 after storage at 54° C. over 2 weeks
Protocol: as §1, §2, §3, §4, §5, §6
Example 9: Comparison of Compound (III) Content of the Formulations from Examples 1 to 4 after Storage at 54° C. for 2 Weeks

[3] = addition of 10% wt/wt Hallcomid vs 0%
[4] = addition of 20% wt/wt Hallcomid vs 0%

For `C=CCCCCCCCC(=O)N(C)C` [Hallcomid®, N,N-dimethyl 9-decenamide], the “reduction of the content of compound (III)” value [1, 3] was 72%, the “reduction of the content of compound (III)” value [1, 4] was 76% and the “reduction of the content of compound (III)” value ([1]; addition of 54.9% wt/wt Hallcomid vs 0%) was 97%. For the same molecule, the “reduction in the content of compound (III)” value (“reduction in the content” below) [2, 3] was 75%, the “reduction in the content” value [2, 4] was 82% and the “reduction in the content” value ([2]; addition of 56.9% wt/wt Hallcomid vs 0%) was 98%.
